Results from ChEMBL document CHEMBL3994622, “Design and synthesis of new RAF kinase-inhibiting antiproliferative quinoline derivatives. Part 2: Diarylurea derivatives” (Eur J Med Chem, 2017).

Columns and labels:
[1] = molecular target: Tyrosine-protein kinase ABL1 (Homo sapiens) (UniProt P00519); assay: Inhibition of human ABL1 at 10 uM using EAIYAAPFAKKK as substrate in presence of [33P]ATP by Hotspot assay relative to control
[2] = molecular target: Mitogen-activated protein kinase 1 (Homo sapiens) (UniProt P28482); assay: Inhibition of human ERK2 at 10 uM using myelin basic protein as substrate in presence of [33P]ATP by Hotspot assay relative to control
Mitogen-activated protein kinase 1 (Homo sapiens), sequence (P28482 whole entry): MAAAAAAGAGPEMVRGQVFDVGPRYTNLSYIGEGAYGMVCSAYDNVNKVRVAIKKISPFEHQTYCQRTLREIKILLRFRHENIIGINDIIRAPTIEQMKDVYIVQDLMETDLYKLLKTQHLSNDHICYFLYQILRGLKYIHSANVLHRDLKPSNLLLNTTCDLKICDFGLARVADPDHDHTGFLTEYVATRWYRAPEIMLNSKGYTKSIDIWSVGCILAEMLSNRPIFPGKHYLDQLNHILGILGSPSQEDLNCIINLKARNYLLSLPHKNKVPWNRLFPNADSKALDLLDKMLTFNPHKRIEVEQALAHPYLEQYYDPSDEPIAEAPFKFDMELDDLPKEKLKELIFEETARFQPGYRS

LOX IMVI [3] = assay: Growth inhibition of human LOXIMVI cells assessed as cell growth at 0.003 uM incubated for 48 hrs by sulforhodamine B assay relative to control; format: functional; settings: read-out: Activity
BT-549 = assay: Growth inhibition of human BT549 cells assessed as cell growth at 30 uM incubated for 48 hrs by sulforhodamine B assay relative to control; format: functional; settings: BT-549, 48 h, read-out: Activity
K562 = assay: Growth inhibition of human K562 cells assessed as cell growth at 100 uM incubated for 48 hrs by sulforhodamine B assay relative to control; format: functional; settings: K562, 48 h, read-out: Activity
HL-60(TB) = assay: Growth inhibition of human HL-60(TB) cells assessed as cell growth at 0.005 uM incubated for 48 hrs by sulforhodamine B assay relative to control; format: functional; settings: HL-60, 48 h, read-out: Activity
EKVX [4] = assay: Growth inhibition of human EKVX cells assessed as cell growth at 0.005 uM incubated for 48 hrs by sulforhodamine B assay relative to control; format: functional; settings: read-out: Activity
SNB-75 [5] = assay: Growth inhibition of human SNB75 cells assessed as cell growth at 0.005 uM incubated for 48 hrs by sulforhodamine B assay relative to control; format: functional; settings: SNB-75, 48 h, read-out: Activity
UACC-257 [6] = assay: Growth inhibition of human UACC257 cells assessed as cell growth at 0.005 uM incubated for 48 hrs by sulforhodamine B assay relative to control; format: functional; settings: UACC-257, 48 h, read-out: Activity
A549 = assay: Growth inhibition of human A549/ATCC cells assessed as cell growth at 0.05 uM incubated for 48 hrs by sulforhodamine B assay relative to control; format: functional; settings: A549, 48 h, read-out: Activity
HOP-62 [7] = assay: Growth inhibition of human HOP62 cells assessed as cell growth at 0.05 uM incubated for 48 hrs by sulforhodamine B assay relative to control; format: functional; settings: HOP-62, 48 h, read-out: Activity
NCI-H226 = assay: Growth inhibition of human NCI-H226 cells assessed as cell growth at 0.05 uM incubated for 48 hrs by sulforhodamine B assay relative to control; format: functional; settings: NCI-H226, 48 h, read-out: Activity
Malme-3M [8] = assay: Growth inhibition of human MALME-3M cells assessed as cell growth at 0.05 uM incubated for 48 hrs by sulforhodamine B assay relative to control; format: functional; settings: read-out: Activity
A498 = assay: Growth inhibition of human A498 cells assessed as cell growth at 0.05 uM incubated for 48 hrs by sulforhodamine B assay relative to control; format: functional; settings: A498, 48 h, read-out: Activity
HCC 2998 = assay: Growth inhibition of human HCC2998 cells assessed as cell growth at 0.5 uM incubated for 48 hrs by sulforhodamine B assay relative to control; format: functional; settings: HCC 2998, 48 h, read-out: Activity
LOX IMVI [9] = assay: Growth inhibition of human LOXIMVI cells assessed as cell growth at 0.5 uM incubated for 48 hrs by sulforhodamine B assay relative to control; format: functional; settings: read-out: Activity
Malme-3M [10] = assay: Growth inhibition of human MALME-3M cells assessed as cell growth at 0.5 uM incubated for 48 hrs by sulforhodamine B assay relative to control; format: functional; settings: read-out: Activity
SN12C = assay: Growth inhibition of human SN12C cells assessed as cell growth at 0.5 uM incubated for 48 hrs by sulforhodamine B assay relative to control; format: functional; settings: read-out: Activity
TK-10 [11] = assay: Growth inhibition of human TK10 cells assessed as cell growth at 0.5 uM incubated for 48 hrs by sulforhodamine B assay relative to control; format: functional; settings: TK-10, 48 h, read-out: Activity
PC-3 = assay: Growth inhibition of human PC3 cells assessed as cell growth at 0.5 uM incubated for 48 hrs by sulforhodamine B assay relative to control; format: functional; settings: PC-3, 48 h, read-out: Activity
MCF7 = assay: Growth inhibition of human MCF7 cells assessed as cell growth at 0.5 uM incubated for 48 hrs by sulforhodamine B assay relative to control; format: functional; settings: MCF7, 48 h, read-out: Activity
Hs-578T = assay: Growth inhibition of human Hs 578T cells assessed as cell growth at 0.5 uM incubated for 48 hrs by sulforhodamine B assay relative to control; format: functional; settings: read-out: Activity
RPMI-8226 [12] = assay: Growth inhibition of human RPMI8226 cells assessed as cell growth at 5 uM incubated for 48 hrs by sulforhodamine B assay relative to control; format: functional; settings: RPMI-8226, 48 h, read-out: Activity
EKVX [13] = assay: Growth inhibition of human EKVX cells assessed as cell growth at 5 uM incubated for 48 hrs by sulforhodamine B assay relative to control; format: functional; settings: read-out: Activity
HOP-62 [14] = assay: Growth inhibition of human HOP62 cells assessed as cell growth at 5 uM incubated for 48 hrs by sulforhodamine B assay relative to control; format: functional; settings: HOP-62, 48 h, read-out: Activity
SF-295 = assay: Growth inhibition of human SF295 cells assessed as cell growth at 5 uM incubated for 48 hrs by sulforhodamine B assay relative to control; format: functional; settings: SF-295, 48 h, read-out: Activity
SNB-19 = assay: Growth inhibition of human SNB19 cells assessed as cell growth at 5 uM incubated for 48 hrs by sulforhodamine B assay relative to control; format: functional; settings: SNB-19, 48 h, read-out: Activity
TK-10 [15] = assay: Growth inhibition of human TK10 cells assessed as cell growth at 5 uM incubated for 48 hrs by sulforhodamine B assay relative to control; format: functional; settings: TK-10, 48 h, read-out: Activity
RPMI-8226 [16] = assay: Growth inhibition of human RPMI8226 cells assessed as cell growth at 50 uM incubated for 48 hrs by sulforhodamine B assay relative to control; format: functional; settings: RPMI-8226, 48 h, read-out: Activity
SF-268 = assay: Growth inhibition of human SF268 cells assessed as cell growth at 50 uM incubated for 48 hrs by sulforhodamine B assay relative to control; format: functional; settings: SF-268, 48 h, read-out: Activity
SNB-75 [17] = assay: Growth inhibition of human SNB75 cells assessed as cell growth at 50 uM incubated for 48 hrs by sulforhodamine B assay relative to control; format: functional; settings: SNB-75, 48 h, read-out: Activity
UACC-257 [18] = assay: Growth inhibition of human UACC257 cells assessed as cell growth at 50 uM incubated for 48 hrs by sulforhodamine B assay relative to control; format: functional; settings: UACC-257, 48 h, read-out: Activity
OVCAR-3 = assay: Growth inhibition of human OVCAR3 cells assessed as cell growth at 50 uM incubated for 48 hrs by sulforhodamine B assay relative to control; format: functional; settings: OVCAR-3, 48 h, read-out: Activity
OVCAR-4 = assay: Growth inhibition of human OVCAR4 cells assessed as cell growth at 50 uM incubated for 48 hrs by sulforhodamine B assay relative to control; format: functional; settings: OVCAR-4, 48 h, read-out: Activity
MDA-MB-468 = assay: Growth inhibition of human MDA-MB-468 cells assessed as cell growth at 3 uM incubated for 48 hrs by sulforhodamine B assay relative to control; format: functional; settings: MDA-MB-468, 48 h, read-out: Activity

Tyrosine-protein kinase ABL1 (Homo sapiens), sequence (P00519 whole entry): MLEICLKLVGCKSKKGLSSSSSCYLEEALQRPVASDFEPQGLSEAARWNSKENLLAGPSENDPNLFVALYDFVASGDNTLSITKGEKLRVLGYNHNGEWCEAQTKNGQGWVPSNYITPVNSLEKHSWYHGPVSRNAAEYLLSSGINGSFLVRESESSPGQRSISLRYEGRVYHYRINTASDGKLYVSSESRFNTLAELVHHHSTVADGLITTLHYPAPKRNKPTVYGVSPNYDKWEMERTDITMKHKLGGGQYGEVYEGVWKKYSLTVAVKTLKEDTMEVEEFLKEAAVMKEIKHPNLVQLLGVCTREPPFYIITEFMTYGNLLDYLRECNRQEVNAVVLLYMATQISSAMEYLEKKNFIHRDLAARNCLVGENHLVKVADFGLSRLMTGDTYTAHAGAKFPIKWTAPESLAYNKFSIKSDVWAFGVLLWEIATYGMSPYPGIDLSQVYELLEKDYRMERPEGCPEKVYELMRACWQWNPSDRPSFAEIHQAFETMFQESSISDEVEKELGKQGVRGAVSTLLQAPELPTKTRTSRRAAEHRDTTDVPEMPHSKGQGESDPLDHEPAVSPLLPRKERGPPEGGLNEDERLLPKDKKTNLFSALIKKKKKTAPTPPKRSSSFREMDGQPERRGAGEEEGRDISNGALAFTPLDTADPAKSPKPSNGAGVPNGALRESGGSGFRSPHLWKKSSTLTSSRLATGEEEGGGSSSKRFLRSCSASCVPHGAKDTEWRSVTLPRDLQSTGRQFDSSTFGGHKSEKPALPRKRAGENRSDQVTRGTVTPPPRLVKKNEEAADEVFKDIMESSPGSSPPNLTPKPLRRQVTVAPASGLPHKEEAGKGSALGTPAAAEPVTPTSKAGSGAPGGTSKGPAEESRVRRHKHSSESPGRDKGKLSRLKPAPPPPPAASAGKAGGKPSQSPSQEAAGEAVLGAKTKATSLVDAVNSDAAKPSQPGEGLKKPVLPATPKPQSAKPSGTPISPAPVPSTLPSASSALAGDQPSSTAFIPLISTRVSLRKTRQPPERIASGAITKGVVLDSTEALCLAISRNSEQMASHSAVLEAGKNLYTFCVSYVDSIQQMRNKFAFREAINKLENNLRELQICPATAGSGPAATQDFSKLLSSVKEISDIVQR

## COc1cc2cc(Oc3ccc(NC(=O)Nc4ccc(Cl)c(C(F)(F)F)c4)cc3)c(C)nc2cc1OC
[1]
  inhibition: -6.78%
[2]
  inhibition: 1.04%
LOX IMVI [3]
  growth at 0.003 µM: 100%
BT-549
  growth at 30 µM: -65%

## COc1cc2cc(Oc3ccc(NC(=O)Nc4cc(C(F)(F)F)cc(C(F)(F)F)c4)cc3)c(C)nc2cc1OC
K562
  growth at 100 µM: -61%

## COc1cc2cc(Oc3ccc(NC(=O)Nc4cccc(C(F)(F)F)c4)cc3)c(C)nc2cc1OC
HL-60(TB)
  growth at 0.005 µM: 104%
EKVX [4]
  growth at 0.005 µM: 105%
SNB-75 [5]
  growth at 0.005 µM: 79%
UACC-257 [6]
  growth at 0.005 µM: 95%
A549
  growth at 0.05 µM: 96%
HOP-62 [7]
  growth at 0.05 µM: 95%
NCI-H226
  growth at 0.05 µM: 104%
Malme-3M [8]
  growth at 0.05 µM: 96%
A498
  growth at 0.05 µM: 106%
HCC 2998
  growth at 0.5 µM: 109%
LOX IMVI [9]
  growth at 0.5 µM: 97%
Malme-3M [10]
  growth at 0.5 µM: 108%
SN12C
  growth at 0.5 µM: 95%
TK-10 [11]
  growth at 0.5 µM: 108%
PC-3
  growth at 0.5 µM: 88%
MCF7
  growth at 0.5 µM: 85%
Hs-578T
  growth at 0.5 µM: 99%
RPMI-8226 [12]
  growth at 5 µM: -25%
EKVX [13]
  growth at 5 µM: 6%
HOP-62 [14]
  growth at 5 µM: 25%
SF-295
  growth at 5 µM: -14%
SNB-19
  growth at 5 µM: 24%
TK-10 [15]
  growth at 5 µM: 19%
RPMI-8226 [16]
  growth at 50 µM: -47%
SF-268
  growth at 50 µM: -32%
SNB-75 [17]
  growth at 50 µM: -46%
UACC-257 [18]
  growth at 50 µM: -75%
OVCAR-3
  growth at 50 µM: -57%
OVCAR-4
  growth at 50 µM: -63%

## Cc1nc2cc(O)c(O)cc2cc1Oc1ccc(NC(=O)Nc2ccc(Cl)c(Cl)c2)cc1
MDA-MB-468
  growth at 3 µM: 92%
